Like-named read-outs stand apart in the source and are kept apart here.
Experiments:
Format in all cases: cell-based
[1] = target: T1, recombinant human ghrelin receptor (HEK293/GRLN) (Homo sapiens, UniProt Q92847); test: Ghrelin inverse agonist potency (EC50) with IP-1 (IP-One HTRF) assay; details: IP-1 assay
T1 construct: expressed in transfected cells
How it was run: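 IP-1 accumulation was measured by HTRF (IP1-d2/Tb-cryptate, 620/665 nm read after 1 hour at room temperature) following 1 hour of compound treatment at 37° C. Cells were HEK293 stably expressing human ghrelin receptor, plated a day earlier on Matrigel. Inverse agonist potency was reported as EC50.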

[2] = target: T2, GHSR-1a (HEK293/GHSR1a cell line) (Homo sapiens, UniProt Q92847); test: Ghrelin agonist potency (EC50) with calcium FLIPR assay
T2 construct: expressed in transfected cells; host or cells: HEK293/GHSR1a cell line
T2 sequence (Q92847 whole entry): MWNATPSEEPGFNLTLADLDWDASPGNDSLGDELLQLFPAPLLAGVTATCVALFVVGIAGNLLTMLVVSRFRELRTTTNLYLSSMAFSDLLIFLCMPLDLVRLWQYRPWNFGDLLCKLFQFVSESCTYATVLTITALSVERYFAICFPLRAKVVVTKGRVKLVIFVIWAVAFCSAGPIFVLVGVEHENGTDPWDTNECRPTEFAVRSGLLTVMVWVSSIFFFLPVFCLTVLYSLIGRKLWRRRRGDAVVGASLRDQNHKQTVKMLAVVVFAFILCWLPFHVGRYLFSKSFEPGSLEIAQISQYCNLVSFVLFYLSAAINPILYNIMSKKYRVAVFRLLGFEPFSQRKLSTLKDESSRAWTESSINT
Method: Evaluation of Ghrelin Agonist (EC50) and Antagonist Potency (IC50) with Calcium FLIPR Assay:
The intracellular calcium assay was carried out in a 384-well format FLIPR™ (Molecular Device) HEK293/GHSR1a cell line. Cells were seeded 24 hr prior to the experiments at an optimal density per well. Preincubation with selected calcium dye lasted for 30-60 min at room temperature or 37° C. Test compounds, dissolved in DMSO, were added at the appropriate time and incubated for 15 min followed by the addition of ghrelin with FlexStation or FLIPR. Relative fluorescence was monitored by the FLIPR™ Molecular Device. EC50 and IC50 values were estimated from dose-response data using GraphPad Prism software. To check for GHSR-1a agonism, the compound was added at t=20 sec. and the calcium response was followed for 2 minutes. To check for GHSR-1a antagonism, the compound and Ghrelin (10 nM) were added to the cells at t=20 sec. and the calcium response was measured for 2 minutes. The potency of the antagonist was calculated by its ability to reduce the ghrelin response. Dose-response curves were made for relevant antagonists.

[3] = target: T2, GHSR-1a (HEK293/GHSR1a cell line); test: Ghrelin antagonist potency (IC50) with calcium FLIPR assay, ghrelin 10 nM
How it was run: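 Fluorescence read-out of intracellular calcium over 2 min. Agonist EC50 came from compound added alone at t=20 sec. Antagonist IC50 came from the reduction of the response to 10 nM ghrelin co-added with compound at t=20 sec. Both were fitted from dose-response data.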

[4] = ghrelin inverse agonist potency, read-out: Activity EC50
[5] = ghrelin agonist potency, read-out: Activity EC50/EMax
[6] = ghrelin antagonist potency, read-out: Activity IC50
[7] = HEK293/GRLN, read-out: Activity EC50 (ghrelin inverse agonist potency)
[8] = HEK293/GHSR1a, read-out: Activity EC50/EMax: EC50 (ghrelin agonist potency)
[9] = HEK293/GHSR1a, ghrelin 10 nM, read-out: Activity IC50 (ghrelin antagonist potency)

T1 sequence (Q92847 whole entry): as above

SMILES | EC50 [1, 4] [nM] | EC50 [2, 5] [µM] | IC50 [3, 6] [nM] | EC50 [1, 7] [nM] | EC50 [2, 8] [µM] | IC50 [3, 9] [nM] | EC50 ([2]; heading: Activity EC50/EMax, ghrelin agonist potency, read-out: Activity EC50/EMax) [µM]
CC(NC(=O)Nc1ccc(S(=O)(=O)Cc2ccc3c(c2)CNC3)cc1-c1ccnn1C)c1ccccc1 (stereo not drawn) [H1528, 1-(4-((isoindolin-5-ylmethyl)sulfonyl)-2-(1-methyl-1H-pyrazol-5-yl)phenyl)-3-(1-phenylethyl)urea] | 83.3 | > 30 | 581 | – | – | – | –
O=C(NCC1COc2ccccc2O1)Nc1ccc(S(=O)(=O)Cc2ccc3c(c2)CNC3)cc1 (stereo not drawn) [H1483, 1-((2,3-dihydrobenzo[b][1,4]dioxin-2-yl)methyl)-3-(4-((isoindolin-5-ylmethyl)sulfonyl)phenyl)urea] | 24.1 | > 30 | 53.8 | – | – | – | –
CC(NC(=O)Nc1ccc(S(=O)(=O)Cc2ccc3c(c2)CNC3)c(CO)c1)c1ccccc1 (stereo not drawn) [H1520, 1-(3-(hydroxymethyl)-4-((isoindolin-5-ylmethyl)sulfonyl)phenyl)-3-(1-phenylethyl)urea] | 12.7 | > 30 | 26.2 | – | – | – | –
CC(NC(=O)Nc1ccc(S(=O)(=O)Cc2ccc3c(c2)CN(C)C3)cc1)c1ccccn1 (stereo not drawn) [H1307, 1-(4-(((2-methylisoindolin-yl)methyl)sulfonyl)phenyl)-3-(1-(pyridin-2-yl)ethyl)urea] | – | – | – | 935 | > 30 | 2300 | –
CC(NC(=O)Nc1ccc(S(=O)(=O)Cc2ccc3c(c2)C(F)(F)CN(C)C3)cc1)c1ccccc1 (stereo not drawn) [H1546, 1-(4-(((4,4-difluoro-2-methyl-1,2,3,4-tetrahydroisoquinolin-6-yl)methyl)sulfonyl)phenyl)-3-(1-phenylethyl)urea] | 126 | > 30 | 1080 | – | – | – | –
C[C@@H](NC(=O)Nc1ccc(S(=O)(=O)Cc2csc3c2CN(C)C3)cc1)c1ccccc1 [H1351, (R)-1-(4-(((5-methyl-5,6-dihydro-4H-thieno[2,3-c]pyrrol-3-yl)methyl)sulfonyl)phenyl)-3-(1-phenylethyl)urea] | – | – | – | 6960 | > 30 | 3450 | –
CC(NC(=O)N(O)c1ccc(S(=O)(=O)Cc2ccc3c(c2)CN(C)C3)cc1)c1ccccc1 (stereo not drawn) [H1458, 1-hydroxy-1-(4-(((2-methylisoindolin-5-yl)methyl)sulfonyl)phenyl)-3-(1-phenylethyl)urea] | 288 | > 30 | 1170 | – | – | – | –
CC(NC(=O)N(O)c1ccc(S(=O)(=O)Cc2ccc3c(c2)CNC3)cc1)c1ccccc1 (stereo not drawn) [H1473, 1-hydroxy-1-(4-((isoindolin-5-ylmethyl)sulfonyl)phenyl)-3-(1-phenylethyl)urea] | 515 | > 30 | 2240 | – | – | – | –
C[C@H](NC(=O)Nc1ccc(S(=O)(=O)Cc2nc3c(s2)CNC3)cc1)c1ccccc1 [H1465, (S)-1-(4-(((5,6-dihydro-4H-pyrrolo[3,4-d]thiazol-2-yl)methyl)sulfonyl)phenyl)-3-(1-phenylethyl)urea] | 678 | > 30 | 5290 | – | – | – | –
COc1cc(S(=O)(=O)Cc2ccc3c(c2)CN(C)C3)ccc1NC(=O)NC(C)c1c(F)cccc1F (stereo not drawn) [H1437, 1-(1-(2,6-difluorophenyl)ethyl)-3-(2-methoxy-4-(((2-methylisoindolin-5-yl)methyl)sulfonyl)phenyl)urea] | – | – | – | 10 | > 30 | 24.3 | –
CC(c1ccccc1)n1c(=O)[nH]c2ccc(S(=O)(=O)Cc3ccc4c(c3)CN(C)C4)cc2c1=O (stereo not drawn) [H1470, 6-(((2-methylisoindolin-5-yl)methyl)sulfonyl)-3-(1-phenylethyl)quinazoline-2,4(1H,3H)-dione] | 22.3 | – | 483 | – | – | – | 0.227
CC(NC(=O)Nc1ccc(S(=O)(=O)Cc2ccc3c(c2)CN(CC2CCCO2)C3)cc1)c1ccccc1 (stereo not drawn) [H1341, 1-(1-phenylethyl)-3-(4-(((2-((tetrahydrofuran-2-yl)methyl)isoindolin-5-yl)methyl)sulfonyl)phenyl)urea] | – | – | – | 20.9 | > 30 | 69.7 | –
CC1c2ccccc2CCN1C(=O)Nc1ccc(S(=O)(=O)Cc2ccc3c(c2)CN(C)C3)cc1 (stereo not drawn) [H1418, 1-methyl-N-(4-(((2-methylisoindolin-5-yl)methyl)sulfonyl)phenyl)-3,4-dihydroisoquinoline-2(1H)-carboxamide] | – | – | – | 69.5 | > 30 | 2700 | –
CC(NC(=O)Nc1ccc(S(=O)(=O)Cc2ccc(CO)cc2)cc1)c1cccc(Cl)c1Cl (stereo not drawn) [H1430, 1-(1-(2,3-dichlorophenyl)ethyl)-3-(4-((4-(hydroxymethyl)benzyl)sulfonyl)phenyl)urea] | – | – | – | 56.4 | > 30 | 2470 | –
COc1cc(S(=O)(=O)Cc2cc3c(cc2F)CNCC3)ccc1NC(=O)NC(C)c1cccc(Cl)c1Cl (stereo not drawn) [H1439, 1-(1-(2,3-dichlorophenyl)ethyl)-3-(4-(((7-fluoro-1,2,3,4-tetrahydroisoquinolin-6-yl)methyl)sulfonyl)-2-methoxyphenyl)urea] | – | – | – | 14.1 | > 30 | 12.4 | –
CC(NC(=O)N(C)c1ccc(S(=O)(=O)Cc2ccc3c(c2)CN(C)C3)cc1)c1ccccc1 (stereo not drawn) [H1377, 1-methyl-1-(4-(((2-methylisoindolin-5-yl)methyl)sulfonyl)phenyl)-3-(1-phenylethyl)urea] | – | – | – | 384 | > 30 | 5520 | –
CC(NC(=O)Nc1ccc(S(=O)(=O)Cc2ccc3c(c2)CNC3)cc1-c1cnn(C)c1)c1ccccc1 (stereo not drawn) [H1535, 1-(4-((isoindolin-5-ylmethyl)sulfonyl)-2-(1-methyl-1H-pyrazol-4-yl)phenyl)-3-(1-phenylethyl)urea] | 21.4 | > 30 | 493 | – | – | – | –
COc1ccc(C(C)NC(=O)Nc2ccc(S(=O)(=O)Cc3ccc4c(c3)CNC4)cc2)cc1Cl (stereo not drawn) [H1475, 1-(1-(3-chloro-4-methoxyphenyl)ethyl)-3-(4-((isoindolin-5-ylmethyl)sulfonyl)phenyl)urea] | 18.9 | > 30 | 32.2 | – | – | – | –
COc1cc(S(=O)(=O)Cc2ccc3c(c2)CC(C)NC3)ccc1NC(=O)N(O)C(C)c1ccccc1 (stereo not drawn) [H1524, 1-hydroxy-3-(2-methoxy-4-(((3-methyl-1,2,3,4-tetrahydroisoquinolin-6-yl)methyl)sulfonyl)phenyl)-1-(1-phenylethyl)urea] | 12.6 | > 30 | 9.77 | – | – | – | –
CC(NC(=O)Nc1ccc(S(=O)(=O)Cc2ccc3c(c2)CN(C)C3)cc1)c1cc(N2CCOCC2)ccc1Cl (stereo not drawn) [H1284, 1-(1-(2-chloro-5-morpholinophenyl)ethyl)-3-(4-(((2-methylisoindolin-5-yl)methyl)sulfonyl)phenyl)urea] | – | – | – | 371 | > 30 | 1900 | –
CC(c1ccccc1)N(O)C(=O)Nc1ccc(S(=O)(=O)Cc2ccc3c(c2)CN(C)C3)cc1 (stereo not drawn) [H1471, 1-hydroxy-3-(4-(((2-methylisoindolin-5-yl)methyl)sulfonyl)phenyl)-1-(1-phenylethyl)urea] | 3.89 | > 30 | 11.8 | – | – | – | –
CC(NC(=O)Nc1ccc(S(=O)(=O)Cc2ccc3c(c2)CN(C)C3)c(-c2ncco2)c1)c1ccccc1 (stereo not drawn) [H1508, 1-(4-(((2-methylisoindolin-5-yl)methyl)sulfonyl)-3-(oxazol-2-yl)phenyl)-3-(1-phenylethyl)urea] | 30 | > 30 | 61.8 | – | – | – | –
COc1cc(S(=O)(=O)Cc2ccc3c(c2)CC(C)N(C)C3)ccc1NC(=O)NC(C)c1ccccc1 (stereo not drawn) [H1440, 1-(4-(((2,3-dimethyl-1,2,3,4-tetrahydroisoquinolin-6-yl)methyl)sulfonyl)-2-methoxyphenyl)-3-(1-phenylethyl)urea] | – | – | – | 2.9 | > 30 | 4.4 | –
COc1cc2c(cc1CS(=O)(=O)c1ccc(NC(=O)NC(C)c3cccc(Cl)c3Cl)cc1)CCNC2 (stereo not drawn) [H1392, 1-(1-(2,3-dichlorophenyl)ethyl)-3-(4-(((7-methoxy-1,2,3,4-tetrahydroisoquinolin-6-yl)methyl)sulfonyl)phenyl)urea] | – | – | – | 52.6 | > 30 | 98.8 | –
CN1CCc2cc(CS(=O)(=O)c3ccc(NC(=O)NCc4cccc(Cl)c4Cl)cc3)ccc2C1 [H1349, 1-(2,3-dichlorobenzyl)-3-(4-(((2-methyl-1,2,3,4-tetrahydroisoquinolin-6-yl)methyl)sulfonyl)phenyl)urea] | – | – | – | 29 | > 30 | 15.3 | –
